Test results as given in the NIST ThermoML archive (doi:10.1016/j.jct.2018.07.013).

Legend:
[1] = xn = mol fraction of the nth substance listed; settings: 298.15 K, 100 kPa, Liquid; for speed of sound: Frequency=3 MHz, Single path-length method; for mass density: Vibrating tube method
[2] = excess molar enthalpy (molar enthalpy of mixing); xn = mol fraction of the nth substance listed; settings: 298.15 K, 100 kPa, Liquid, Power-compensation calorimetry
[3] = 298.15 K, 100 kPa, Liquid; for speed of sound: Frequency=3 MHz, Single path-length method; for mass density: Vibrating tube method

CCOC(=O)C(C)O (stereo not drawn) [DL-ethyl lactate] + CCO
Settings | excess molar enthalpy, [2] [kcal/mol] | mass density, [1] [kg/m3] | speed of sound, [1] [m/s]
x1 = 0.0522 | – | 809.88 | 1158.1
x1 = 0.054 | 0.0177 | – | –
x1 = 0.0957 | – | 828.74 | 1169.7
x1 = 0.114 | 0.0337 | – | –
x1 = 0.1946 | – | 866.53 | 1192.8
x1 = 0.225 | 0.0502 | – | –
x1 = 0.2902 | – | 897.43 | 1211.3
x1 = 0.312 | 0.0554 | – | –
x1 = 0.4011 | – | 927.58 | 1229.3
x1 = 0.42 | 0.0574 | – | –
x1 = 0.4995 | – | 950.3 | 1240.8
x1 = 0.511 | 0.0538 | – | –
x1 = 0.6076 | – | 971.75 | 1252.8
x1 = 0.635 | 0.0457 | – | –
x1 = 0.6931 | – | 986.54 | 1261.4
x1 = 0.737 | 0.0349 | – | –
x1 = 0.7965 | – | 1002.43 | 1268.7
x1 = 0.829 | 0.0217 | – | –
x1 = 0.9047 | – | 1017.03 | 1275.2
x1 = 0.93 | 0.0097 | – | –
x1 = 0.9511 | – | 1022.75 | 1277.3
x1 = 0.96 | 0.00478 | – | –
x1 = 1 | – | 1028.45 | 1279.3

CCOC(=O)C(C)O (stereo not drawn) [DL-ethyl lactate] + CO
Settings | excess molar enthalpy, [2] [kcal/mol] | mass density, [1] [kg/m3] | speed of sound, [1] [m/s]
x1 = 0.0432 | – | 816.63 | 1125.5
x1 = 0.051 | -0.0088 | – | –
x1 = 0.0935 | – | 846.09 | 1149.1
x1 = 0.104 | -0.0166 | – | –
x1 = 0.1911 | – | 890.78 | 1187
x1 = 0.209 | -0.0299 | – | –
x1 = 0.2979 | – | 926.51 | 1215.4
x1 = 0.327 | -0.0361 | – | –
x1 = 0.3976 | – | 951.94 | 1234.5
x1 = 0.437 | -0.0378 | – | –
x1 = 0.5018 | – | 972.85 | 1250.5
x1 = 0.569 | -0.0356 | – | –
x1 = 0.5789 | – | 985.46 | 1259
x1 = 0.621 | -0.0313 | – | –
x1 = 0.695 | – | 1000.96 | 1270.3
x1 = 0.763 | -0.0199 | – | –
x1 = 0.8045 | – | 1012.66 | 1275.9
x1 = 0.83 | -0.0134 | – | –
x1 = 0.9018 | – | 1021.2 | 1278.2
x1 = 0.905 | -0.00672 | – | –
x1 = 0.958 | -0.00263 | – | –
x1 = 0.9622 | – | 1025.79 | 1279
x1 = 1 | – | 1028.45 | 1279.3

CCCCO [butan-1-ol]
[3]
Settings | mass density [kg/m3] | speed of sound [m/s]
– | 805.95 | 1240.4

CCCCO [butan-1-ol] + CCOC(=O)C(C)O
[1], x2 = 0
Settings | mass density [kg/m3] | speed of sound [m/s]
– | 805.95 | 1240.4

CCCCO [butan-1-ol] + COC(=O)C(C)O
[1], x2 = 0
Settings | mass density [kg/m3] | speed of sound [m/s]
– | 805.95 | 1240.4

CCO [ethanol]
[3]
Settings | mass density [kg/m3] | speed of sound [m/s]
– | 785.16 | 1143.2

CCO [ethanol] + CCOC(=O)C(C)O
[1], x2 = 0
Settings | mass density [kg/m3] | speed of sound [m/s]
– | 785.16 | 1143.2

CCO [ethanol] + COC(=O)C(C)O
[1], x2 = 0
Settings | mass density [kg/m3] | speed of sound [m/s]
– | 785.16 | 1143.2
